Results reported in patent US20160272635A1, “SUBSTITUTED DIHYDROPYRIDO[3,4-B]PYRAZINONES AS DUAL INHIBITORS OF BET PROTEINS AND POLO-LIKE KINASES” (BAYER PHARMA AKTIENGESELLSCHAFT, priority 2013, published 2016).
Where two headings read alike, the source gives them in different places.

Tests used:
[1] = target: T1, BRD4 bromo domain 1 [BRD4(1)] (Homo sapiens, UniProt O60885); assay: BRD4(1)/acetylated peptide H4 binding assay (TR-FRET); conditions: inhibition of interaction between BRD4(1) and acetylated histone H4 peptide
T1 construct: N-terminally His6-tagged BRD4(1) (amino acids 67-152); made in house; host or cells: E. coli
Description: To assess the BRD4(1) binding strength of the substances described in this application, the ability thereof to inhibit the interaction between BRD4(1) and acetylated histone H4 in a dose-dependent manner was quantified.
For this purpose, a time-resolved fluorescence resonance energy transfer (TR-FRET) assay was used, which measures the binding between N-terminally His6-tagged BRD4(1) (amino acids 67-152) and a synthetic acetylated histone H4 (Ac-H4) peptide with sequence GRGK(Ac)GGK(Ac)GLGK(Ac)GGAK(Ac)RHGSGSK-biotin. The recombinant BRD4(1) protein produced in-house according to Filippakopoulos et al., Cell, 2012, 149:214-231 was expressed in E. coli and purified by means of (Ni-NTA) affinity and (Sephadex G-75) size exclusion chromatography. The Ac-H4 peptide can be purchased, for example, from Biosyntan (Berlin, Germany).
In the assay, typically 11 different concentrations of each substance (0.1 nM, 0.33 nM, 1.1 nM, 3.8 nM, 13 nM, 44 nM, 0.15 μM, 0.51 μM, 1.7 μM, 5.9 μM and 20 μM) were analysed as duplicates on the same microtitre plate. For this purpose, 100-fold concentrated solutions in DMSO were prepared by serial dilutions (1:3.4) of a 2 mM stock solution into a clear, 384-well microtitre plate (Greiner Bio-One, Frickenhausen, Germany). From this, 50 n1 were transferred into a black test plate (Greiner Bio-One, Frickenhausen, Germany). The test was started by the addition of 2 μl of a 2.5-fold concentrated BRD4(1) solution (final concentration typically 10 nM in the 5 μl of reaction volume) in aqueous assay buffer [50 mM HEPES pH 7.5, 50 mM sodium chloride (NaCl), 0.25 mM CHAPS and 0.05% serum albumin (BSA)] to the substances in the test plate. This was followed by a 10-minute incubation step at 22° C. for the pre-equilibration of putative complexes between BRD4(1) and the substances.
The mixture was then incubated in the dark at 22° C. for one hour and then at 4° C. for at least 3 hours and for no longer than overnight. The formation of BRD4(1)/Ac-H4 complexes was determined by the measurement of the resonance energy transfer from the streptavidin-Eu cryptate to the anti-6His-XL665 antibody present in the reaction. For this purpose, the fluorescence emission was measured at 620 nm and 665 nm after excitation at 330-350 nm in a TR-FRET measuring instrument, for example a Rubystar or Pherastar (both from BMG Lab Technologies, Offenburg, Germany) or a Viewlux (Perkin-Elmer). The ratio of the emissions at 665 nm and at 622 nm was taken as an indicator of the amount of BRD4(1)/Ac-H4 complexes formed.
The data (ratios) obtained were normalized, with 0% inhibition corresponding to the mean from the measurements for a set of controls (typically 32 data points) in which all the reagents were present. In these, in place of test substances, 50 nl of DMSO (100%) were used Inhibition of 100% corresponded to the mean from the measurements for a set of controls (typically 32 data points) in which all the reagents except BRD4(1) were present. The IC50 was determined by regression analysis based on a 4-parameter equation (minimum, maximum, IC50, Hill; Y=Max+(Min−Max)/(1+(X/IC50)Hill).

Plk-1 = target: T2, Plk-1 (Homo sapiens, UniProt P53350); assay: Plk-1 enzyme assay (indirect HTRF kinase assay); assay type: biochemical
T2 construct: Recombinant fusion protein consisting of GST and Plk (kinase domain 33-345); MW 36 kDa; GST; made in house; host or cells: insect cells (Hi5)
Protocol: Recombinant fusion protein consisting of GST and Plk (kinase domain 33-345; MW 36 kDa, conc 0.8 μg/μl) expressed from insect cells (Hi5) and purified by glutathione Sepharose affinity chromatography and subsequent gel filtration (Superdex 75) is used for the kinase assay. Aliquots thereof are frozen in liquid nitrogen and stored at −80° C. and, after thawing, used only once.
The assay used is an indirect HTRF assay which employs the following materials and procedures. The substrate used for the kinase reaction is the biotinylated peptide Btn-Ahx-KKLNRTLSFAEPG-amide x TFA from Biosyntan, Sample No.: 6178.1 (C-terminus in amide form). This is an artificial sequence not derived from any known protein. 50 nl of the test compounds dissolved in 100% dimethyl sulphoxide (DMSO) (final concentrations: 0 μM and concentrations in the range of 0.001-20 μM) are pre-incubated with 2 μl Plk-1 enzyme working solution in working buffer [25 mM MgCl2; 1 mM DTT; 50 mM Hepes pH 7.0; 0.01% NP40; 1× Complete; 0.05% BSA] for 30 min. The kinase reaction is then initiated by addition of 3 μl of substrate solution [adenosine triphosphate (ATP) and 1.4 μM substrate peptide (biotin-Ttds-KKLNRTLSFAEPG-NH2)] in working buffer, and, after 30 min, stopped by addition of a stopper solution (100 mM EDTA, 100 mM Hepes pH 7.5, 800 mM potassium fluoride, 0.12% BSA, 0.4 μM SA-XLent (0.05 μM, from CIS bio international, Marcoule, France), Eu^3+ cryptate-conjugated rabbit anti-mouse IgG (1.5 nM; an anti-mouse IgG antibody labelled with europium cryptate from CIS bio international, Marcoule, France), 1 nM anti-phospho-serine kinase (a phospho-specific antibody from Upstate Biotechnology, Dundee, Scotland), and incubated at 4° C. overnight.
For the test at low ATP concentration, a 1.25 ng/μl Plk-1 working solution and 16.7 μM ATP are used, for the test at high ATP concentration, a 0.039 ng/μl Plk-1 working solution and 16.7 mM ATP are used.
The amount of phosphorylated substrate peptide is then determined by measuring the resonance energy transfer from europium-labelled antibody complex to streptavidine-XLent. To this end, the fluorescence emission at 620 nm and 665 nm is measured following excitation at 350 nm in an HTRF measuring instrument, e.g. Rubystar (BMG Labtechnologies, Offenburg, Germany) or Viewlux (Perkin-Elmer). The ratio of the emissions at 665 nm and at 620 nm is taken as a measure of the amount of phosphorylated substrate peptide. The data are normalized (enzyme reaction without inhibitor=0% inhibition, all other assay components, but no enzyme=100% inhibition), and IC50 values are calculated using a 4 parameter equation (minimum, maximum, IC50, Hill; Y=max+(min−max)/(1+(X/IC50)Hill)).

MOLM-13 cell line = assay: MOLM-13 cell proliferation assay (alamarBlue); assay type: cell-based; conditions: Homo sapiens; MOLM-13 cells, 96 hours incubation, inhibition of cell proliferation
Protocol: In accordance with the invention, the substances were tested for their ability to inhibit the proliferation of the MOLM-13 cell linie (Deutsche Sammlung far Mikroorganismen and Zellkulturen [German Collection of Microorganisms and Cell Cultures], ACC 554). Cell viability was determined by means of the alamarBlue® reagent (Invitrogen) in a Victor X3 Multilabel Reader (Perkin Elmer). The excitation wavelength was 530 nm and the emission wavelength […].
The MOLM-13 cells were shown at a density of 4000 cells/well in 100 μl of growth medium on 96-well microtitre plates. After overnight incubation at 37° C., the fluorescence values (CI values) were determined. The plates were then treated with various substance dilutions and incubated at 37° C. for 96 hours. Subsequently, the fluorescence values were determined (CO values). For the data analysis, the CI values were subtracted from the CO values and the results were compared between cells which had been treated with various dilutions of the substance or only with buffer solution. The IC50 values (substance concentration needed for 50% inhibition of cell proliferation) were calculated therefrom.

[2] = 10 μM ATP (low ATP concentration), read-out: IC50 [Plk-1] (10 μM ATP)
[3] = 10 mM ATP (high ATP concentration), read-out: IC50 [Plk-1] (10 mM ATP)

T2 sequence (P53350 33-345): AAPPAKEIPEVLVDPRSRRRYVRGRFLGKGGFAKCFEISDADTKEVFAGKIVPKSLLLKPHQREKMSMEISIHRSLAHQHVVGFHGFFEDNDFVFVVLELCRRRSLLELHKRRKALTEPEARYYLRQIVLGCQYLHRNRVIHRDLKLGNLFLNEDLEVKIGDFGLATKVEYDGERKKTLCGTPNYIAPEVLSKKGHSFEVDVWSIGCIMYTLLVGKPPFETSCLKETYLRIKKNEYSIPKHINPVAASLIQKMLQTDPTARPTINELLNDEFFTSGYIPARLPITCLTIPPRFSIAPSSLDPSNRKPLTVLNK

| Structure (SMILES) | IC50 [1] | IC50 (Plk-1; [2]) | IC50 (Plk-1; [3]) | IC50 (MOLM-13 cell line) |
| --- | --- | --- | --- | --- |
| CC[C@@H]1C(=O)N(C)c2cnc(Nc3ncc(C(=O)NC4CCOCC4)cc3C)cc2N1C1CCCC1 [Example 17, 6-{[(2R)-1-Cyclopentyl-2-ethyl-4-methyl-3-oxo-1,2,3,4-tetrahydropyrido[3,4-b]pyrazin-7-yl]amino}-5-methyl-N-(tetrahydro-2H-pyran-4-yl)pyridine-3-carboxamide] | 539 nM | 8 nM | 14 nM | 55 nM |
| CC[C@@H]1C(=O)N(C)c2cnc(Nc3ncc(C(=O)N[C@@H]4CCCCNC4=O)cc3OC)cc2N1C1CCCC1 [Example 16, 6-[[(2R)-1-Cyclopentyl-2-ethyl-1,2,3,4-tetrahydro-4-methyl-3-oxopyrido[3,4-b]pyrazin-7-yl]amino]-N-[(3R)-hexahydro-2-oxo-1H-azepin-3-yl]-5-methoxy-3-pyridinecarboxamide] | 525 nM | – | 22 nM | 77 nM |
| CC[C@@H]1C(=O)N(C)c2cnc(Nc3ncc(C(=O)NCCOC)cc3OC)cc2N1C1CCCC1 [Example 8, 6-[[(2R)-1-Cyclopentyl-2-ethyl-1,2,3,4-tetrahydro-4-methyl-3-oxopyrido[3,4-b]pyrazin-7-yl]amino]-5-methoxy-N-(2-methoxyethyl)-3-pyridinecarboxamide] | 333 nM | 9 nM | 22 nM | 72 nM |
| COc1cc(C(=O)NC2CC2)cnc1Nc1cc2c(cn1)N(C)C(=O)C(C)N2C1CCCC1 (stereo not drawn) [Example 1, 6-{[1-Cyclopentyl-2,4-dimethyl-3-oxo-1,2,3,4-tetrahydropyrido[3,4-b]pyrazin-7-yl]amino}-N-cyclopropyl-5-methoxypyridine-3-carboxamide] | 204 nM | 15 nM | – | 209 nM |
| CCC1C(=O)N(C)c2cnc(Nc3ncc(C(=O)NC4CC4)cc3OC)cc2N1C1CCCC1 (stereo not drawn) [Example 4, 6-[(1-Cyclopentyl-2-ethyl-1,2,3,4-tetrahydro-4-methyl-3-oxopyrido[3,4-b]pyrazin-7-yl)amino]-N-cyclopropyl-5-methoxy-3-pyridinecarboxamide] | 450 nM | – | 31 nM | 68 nM |
| CCc1cc(C(=O)N[C@@H]2CCCCNC2=O)cnc1Nc1cc2c(cn1)N(C)C(=O)[C@@H](CC)N2C1CCCC1 [Example 9, 6-{[(2R)-1-Cyclopentyl-2-ethyl-4-methyl-3-oxo-1,2,3,4-tetrahydropyrido[3,4-b]pyrazin-7-yl]amino}-5-ethyl-N-[(3R)-2-oxoazepan-3-yl]pyridine-3-carboxamide] | 343 nM | – | 17 nM | 76 nM |
| CC[C@@H]1C(=O)N(C)c2cnc(Nc3ncc(C(=O)NC4CCOCC4)cc3OC)cc2N1C1CCCC1 [Example 10, 6-[[(2R)-1-Cyclopentyl-2-ethyl-1,2,3,4-tetrahydro-4-methyl-3-oxopyrido[3,4-b]pyrazin-7-yl]amino]-5-methoxy-N-(tetrahydro-2H-pyran-4-yl)-3-pyridinecarboxamide] | 376 nM | – | 31 nM | 43 nM |
| COc1cc(C(=O)NC2CC2)cnc1Nc1cc2c(cn1)N(C)C(=O)[C@@H](C)N2C1CCCC1 [Example 2, 6-{[(2R)-1-Cyclopentyl-2,4-dimethyl-3-oxo-1,2,3,4-tetrahydropyrido[3,4-b]pyrazin-7-yl]amino}-N-cyclopropyl-5-methoxypyridine-3-carboxamide] | 126 nM | 17 nM | – | 93 nM |
| CC[C@@H]1C(=O)N(C)c2cnc(Nc3ncc(C(=O)NCC(F)(F)F)cc3OC)cc2N1C1CCCC1 [Example 7, 6-[[(2R)-1-Cyclopentyl-2-ethyl-1,2,3,4-tetrahydro-4-methyl-3-oxopyrido[3,4-b]pyrazin-7-yl]amino]-5-methoxy-N-(2,2,2-trifluoroethyl)-3-pyridinecarboxamide] | 276 nM | 11 nM | 30 nM | 80 nM |
